The results in this text go back to PubChem BioAssay (NCI).

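Grown in 96-well plates, cells were treated for 48 hours with each compound at five concentrations. Insufficient inhibition: endpoint recorded as highest concentration tested. TGI: concentration producing complete growth inhibition.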

Test systems include ACHN renal; BT-549 breast; EKVX NSCLC; HCC-2998 colon; HOP-62 NSCLC; HT29 colon; M14 melanoma; MCF7 breast; MOLT-4 leukemia; NCI-H226 lung; PC-3 prostate; RPMI-8226 leukemia; SF-268 CNS; SF-295 CNS; SK-OV-3 ovarian; SNB-19 CNS; T-47D breast; UACC-62 melanoma; UO-31 renal.
Common to all, as to test: NCI-60 cell line screen, 48 h

As to `C=CCNC(=O)NC(=O)CSC1=NNC2(C(=O)N1)c1ccccc1-c1ccccc12`, the TGI with ACHN renal, with BT-549 breast, with EKVX NSCLC, with HCC-2998 colon, with HOP-62 NSCLC and in the test with HT29 colon was more than 10 µM in each case. Moreover, the TGI with M14 melanoma, with MCF7 breast, with MOLT-4 leukemia, in the test with NCI-H226 lung, with PC-3 prostate and with RPMI-8226 leukemia was more than 10 µM each time. Also, the TGI in the test with SF-268 CNS, in the test with SF-295 CNS, with SK-OV-3 ovarian, in the test on SNB-19 CNS, in the test on T-47D breast and in the test on UACC-62 melanoma was more than 10 µM in each case. Moreover, the TGI with UO-31 renal was more than 10 µM.
As to `CC1=NN(C(=O)c2ccccc2O)C(=O)/C1=C/c1ccco1`, the TGI in the test on ACHN renal was more than 100 µM; with BT-549 breast it was more than 100 µM; in the test with EKVX NSCLC it was 44.2 µM; with HCC-2998 colon, more than 100 µM; in the test with HT29 colon it was more than 100 µM; in the test on M14 melanoma, more than 100 µM. The TGI with MCF7 breast was 37.9 µM; with MOLT-4 leukemia, more than 100 µM; with NCI-H226 lung it was 44.4 µM; in the test on PC-3 prostate, 46 µM; with RPMI-8226 leukemia, more than 92.6 µM; in the test with SF-268 CNS it was more than 100 µM. Also, the TGI with SF-295 CNS is more than 88.3 µM; in the test with SK-OV-3 ovarian, more than 82 µM; in the test with SNB-19 CNS, more than 91.1 µM; with T-47D breast it was more than 100 µM; in the test with UACC-62 melanoma, 6.27 µM.
For the molecule `CCOC(=O)P(=O)(O)c1ccc(N(C)Cc2ccccc2)cc1`, the TGI in the test on ACHN renal, in the test with BT-549 breast, with EKVX NSCLC, with HCC-2998 colon, in the test with HOP-62 NSCLC and in the test with HT29 colon was more than 100 µM throughout. For the same molecule, the TGI in the test with M14 melanoma, in the test with MCF7 breast, with MOLT-4 leukemia, in the test on NCI-H226 lung, with PC-3 prostate and in the test on RPMI-8226 leukemia was more than 100 µM throughout. Also, the TGI in the test on SF-268 CNS, with SF-295 CNS, with SK-OV-3 ovarian, in the test on SNB-19 CNS, in the test on T-47D breast and in the test with UACC-62 melanoma was more than 100 µM throughout. The TGI with UO-31 renal is more than 100 µM.
Take `COC(=O)C1(CCC(C)=O)CCCCCC1=O` (stereo unspecified): the TGI in the test on ACHN renal, with BT-549 breast, in the test on EKVX NSCLC, in the test with HCC-2998 colon, with HOP-62 NSCLC and in the test on HT29 colon was more than 100 µM each time. The TGI in the test with M14 melanoma, with MCF7 breast, in the test with MOLT-4 leukemia, with NCI-H226 lung, in the test with PC-3 prostate and with RPMI-8226 leukemia was more than 100 µM each time. For the same molecule, the TGI in the test with SF-268 CNS, in the test on SF-295 CNS, with SK-OV-3 ovarian, in the test with SNB-19 CNS, in the test with T-47D breast and with UACC-62 melanoma was more than 100 µM throughout. In the test on UO-31 renal, this molecule yielded a TGI of more than 100 µM.
With `NC(N)=N/N=C/c1c(-c2ccc(Cl)cc2)nc2sccn12`, the TGI in the test with ACHN renal came to 2.82 µM; in the test on BT-549 breast, 12 µM; in the test on EKVX NSCLC it was 31.2 µM; with HCC-2998 colon, 2.74 µM; with HOP-62 NSCLC, 3.56 µM; in the test on HT29 colon, 3.23 µM. For the same molecule, the TGI with M14 melanoma stood at 3.17 µM; with MCF7 breast, 3.48 µM; in the test with MOLT-4 leukemia, 5.08 µM; in the test on NCI-H226 lung it was 7.49 µM; in the test on PC-3 prostate, 3.33 µM; with RPMI-8226 leukemia, 7.04 µM. Also, the TGI in the test on SF-268 CNS was 3.72 µM; with SF-295 CNS it was 3.13 µM; in the test with SK-OV-3 ovarian, 10.8 µM; in the test on SNB-19 CNS it was 20.7 µM; in the test on T-47D breast it was 3.22 µM; in the test on UACC-62 melanoma, 3.39 µM. This molecule also came in with a TGI in the test with UO-31 renal of 7.49 µM.
In the case of `CCOC(=O)/C(C#N)=C\c1ccc(N(CCC(=O)O)CCC(=O)O)c(I)c1`, the TGI in the test on ACHN renal, in the test with BT-549 breast, in the test with EKVX NSCLC, in the test on HCC-2998 colon, in the test on HOP-62 NSCLC and in the test on HT29 colon was more than 10 µM each time. The TGI in the test on M14 melanoma, in the test with MCF7 breast, in the test with MOLT-4 leukemia, with NCI-H226 lung, in the test with PC-3 prostate and in the test with RPMI-8226 leukemia was more than 10 µM each time. Also, the TGI in the test with SF-268 CNS, with SF-295 CNS, with SK-OV-3 ovarian, in the test on SNB-19 CNS, in the test with T-47D breast and in the test on UACC-62 melanoma was more than 10 µM each time. Also, the TGI in the test on UO-31 renal was more than 10 µM.
Turning to `C=C(C)C1=CCC[C@]2(C1)N=C(OC)[C@@H](C(C)C)N=C2OC`, the TGI in the test with ACHN renal, in the test on BT-549 breast, in the test with EKVX NSCLC, in the test with HCC-2998 colon, in the test on HOP-62 NSCLC and with HT29 colon was more than 100 µM throughout. In addition, the TGI in the test with M14 melanoma was more than 100 µM; in the test with MCF7 breast it was more than 100 µM; in the test on MOLT-4 leukemia, more than 100 µM; in the test with NCI-H226 lung, more than 100 µM; in the test on PC-3 prostate, more than 100 µM; in the test on RPMI-8226 leukemia, 47.9 µM. Moreover, the TGI in the test on SF-268 CNS, in the test on SF-295 CNS, in the test with SK-OV-3 ovarian, in the test on SNB-19 CNS, with T-47D breast and in the test with UACC-62 melanoma was more than 100 µM throughout. For the same molecule, the TGI in the test with UO-31 renal was more than 100 µM.
